According to US10429393B2, “Tumor deconstruction platform for the analysis of intra-tumor heterogeneity” (NATIONAL CENTRE FOR CELL SCIENCE, priority 2014, dated 2019):

Assays:
[1] = tested on: A4 serous ovarian adenocarcinoma xenografts; test: Flow cytometric resolution of residual tumour composition (proliferative hierarchy, ploidy, cell cycle; 18 fractions) after therapy; assay type: in vivo, mice; conditions: for drug sensitive tumour populations (cell targets): individual treatments, grid of FIG. 9
Experimental: FIG. 8 represents data discussed in Example 3. a. Schematic of paclitaxel administration regime; b. Frequency (±SEM) of tumor fractions based on proliferative hierarchy, ploidy and cell cycle analysis in control and paclitaxel treated where populations 1-18 are as depicted in FIG. 6b, inset indicates frequency of cycling CSCs, 18a-PKH^hi Eu G0, 18b-PKH^hi Eu G1,18c-PKH^hi Eu S, 18d-PKH^hi Eu G2/M, 18e-PKW^hi Aneu G0, 18f-PKH^hi Aneu G1, 18g-PKH^hiAneu S, 18h-PKW^hi Aneu G2/M;*−P<0.05; **−P<0.001; ***−P<0.0001.
FIG. 9 represents the efficacy of various drug regimes through resolution of residual tumor composition after therapy in comparison with a naïve (untreated) tumor for following drug regimes—Pac ST (paclitaxel short-term: 3 doses—48 h intervals—1 week recovery), Pac LT (paclitaxel long-term, 2 cycles of ST regime); Gem ST (gemcitabine short-term, 3 doses—36 h intervals—36 h recovery), Gem LT (gemcitabine long-term, 5 doses—36 h intervals—36 h recovery); 5AzadC (3 doses—48 h intervals—1 week recovery); mAbX (6 doses of an uncharacterised antibody developed in the Bapat lab—48 h intervals—48 h recovery); Gem+mAbX ST combination therapy (3 doses of each drug—48 h intervals—48 h recovery), Gem+mAbX LT combination therapy (2 cycles each comprising of 3 doses of each drug—48 h intervals—1 week recovery); triple drug combination of gemcitabine, mAbX and 5AzadC LT (6 therapeutic cycles, each comprising of 3 doses of each drug at 48 h intervals and 1 week recovery); populations 1-18 and 18a-18h are as defined in FIGS. 6b and 8 respectively.
Standard techniques are used in the process that is illustrative rather than limiting; other common methods are acceptable in the practice of this invention. Tumor tissues were rinsed several times with phosphate buffered saline (PBS) containing antibiotic and/or anti-fungal agents, finely minced and suspended in basal media supplemented with cell dissociation agent(s) with intermittent pipetting to loosen cell aggregates. Various combinations of dissociation agents can be used depending on the tumor type and appearance and including but not being limited to EDTA, EGTA, cocktails of enzymes including trypsin, dispases, collagenases, DNAse, and the like. On dispersion of tumor cell aggregates, enzymatic activity is usually terminated by addition of serum, cells pelleted by centrifugation and washed several times with basal medium and filtered through cell strainers to obtain a single cell suspension. Cell lines are harvested as per established guidelines to obtain a single cell suspension. […] Labeled cells are xenografted in immunocompromised mice, which could be either nude, SCID, Beige/SCID, NOD/SCID, Rag-/Rag-, humanised mice models, or any known experimental xenograft animal model. Control tumors were concurrently generated using unlabeled cells. Xenografts were harvested as per animal experimental protocols and digested to generate single cell suspension from which the different sub-populations were resolved through flow cytometry.
Basic cell parameters FSC and SSC were adjusted with ND filter 1.5/2 with appropriate FSC and SSC thresholds. Cell debris was eliminated based on low FSC—low SSC, doublets using Area—width parameters and RBCs based on nuclear Propidium iodide (PI) staining. PI excitation/emission maxima are at 535/617 nm (PE channel of blue laser used for analysis). Freshly labeled cells are used to set the gates for VMF^hi cells, while TDSCS from unlabeled tumors was used in order to set the gates for VMF^neg cells. Other fluorophores including Hoechst (UV laser), Pyronin Y (PE channel of blue laser), APC (red laser) and others can be incorporated into this scheme based on their compatibility and resolution capabilities of the flow equipment used for data acquisition and/or sorting as per experimental requirements.
G0/G1, S and G2/M (as illustrated in FIG. 3) provides information regarding the proliferative capability of a tumor. […]

[2] = tested on: A4 serous ovarian adenocarcinoma xenografts; test: Tumour volume of A4 xenografts after drug regime; assay type: in vivo, mice; conditions: paclitaxel i.p. 25 mg/kg body weight; at the end of the regime
[3] = paclitaxel treated vs control, FIG. 8b

For `Nc1ncn([C@H]2C[C@H](O)[C@@H](CO)O2)c(=O)n1` [5 AzadC, 5AzadC], the “drug sensitive tumour populations (cell targets)” value [1] was “effective against aneuploid fractions”.

`Nc1ccn([C@@H]2O[C@H](CO)[C@@H](O)C2(F)F)c(=O)n1` [gemcitabine] was tested, and the “drug sensitive tumour populations (cell targets)” value [1] was “effective in short-term sensitization of all populations within the PKH^neg fraction”.

`CC(=O)O[C@H]1C(=O)[C@@]2(C)[C@H]([C@H](OC(=O)c3ccccc3)[C@]3(O)C[C@H](OC(=O)[C@H](O)[C@@H](NC(=O)c4ccccc4)c4ccccc4)C(C)=C1C3(C)C)[C@]1(OC(C)=O)CO[C@@H]1C[C@@H]2O` [paclitaxel] was tested, and the “reduction in tumor volumes” value [2] was 50%, the “CSC re-entry into the cell cycle (cycling populations within PKH^hi fraction)” value ([1]; after therapy vs naive tumor, FIG. 8b inset, FIG. 9) was “presence of cycling populations that have undergone less than 3-4 doublings within the PKH^hi fraction” and the “frequency of aneuploid progenitor cells” value ([1]; following paclitaxel treatment vs control) was “Increased frequency of aneuploid progenitor cells”. The “PKH^hi (CSC) fraction” value [1, 3] was “enhanced PKH^hi (CSC) fraction” and the “PKH^neg fraction” value [1, 3] was “decreased PKH^neg fraction”.
